Format in all cases: cell-based
In one experiment the test system is OVCAR 3. Description: CellTiterGlo cell viability assay, OVCAR 3. The conditions noted are these: for EC50: OVCAR 3, 72 h, read-out: Ab EC50. A digest of the protocol:
(§1)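 Cells were treated in duplicate for 72 h under standard growth conditions with a 9-point, 3.16-fold compound series at final concentrations of 198 μM to 19.8 nM in 0.5% DMSO. Viability was measured by CellTiterGlo luminescence, and absolute EC50 and percent inhibition at the top concentration were derived.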
Background: ATP-based viability assays read luminescence as a measure of living cells.

In the next experiment the test system is MCF-7. Description: CellTiterGlo cell viability assay, MCF-7. The conditions noted are these: Homo sapiens, MCF7, 72 h, MCF-7, 72 h; for EC50: read-out: Ab EC50. A digest of the protocol:
as §1

The test system of another experiment is HL-60. Description: CellTiterGlo cell viability assay, HL-60. The conditions noted are these: HL-60, 72 h; for EC50: read-out: Ab EC50. A digest of the protocol:
as §1

The next experiment has as its system RL. In words: CellTiterGlo cell viability assay, RL. The following applies: Homo sapiens, 72 h; for EC50: read-out: Ab EC50. The method in brief:
as §1

Results on 1 molecule are retold here after patent publication US11560400B2, “Salts of diphosphate phosphoramidate of nucleosides as anticancer compounds” (NuCana plc, priority 2017, dated 2023).

The term EC50 denotes the concentration that produces a half-maximal response.

Read-outs that look alike come from different tables or passages of the source.

For the molecule `Nc1nc(Cl)nc2c1ncn2[C@@H]1O[C@H](CO)[C@@H](O)[C@@H]1F` [Clofarabine, reference compound], the inhibition at 198 µM in the experiment with OVCAR 3 (Homo sapiens, OVCAR-3, 72 h, percentage inhibition at the highest concentration tested, read-out: Top Inhibit) stood at 48%; in the experiment with MCF-7 (percentage inhibition at the highest concentration tested, read-out: Top Inhibit), 55%; in the experiment on HL-60 (Homo sapiens, percentage inhibition at the highest concentration tested, read-out: Top Inh) it was 97%; in the experiment on RL (percentage inhibition at the highest concentration tested, read-out: Top Inh), 77%. Moreover, the EC50 in the experiment with OVCAR 3 (Homo sapiens, Table 3 classes) was more than 10000 nM; in the experiment on OVCAR 3 (Table 4 classes) it was more than 10000 nM; in the experiment with MCF-7 (Table 3 classes), 200 to 2000 nM; in the experiment with MCF-7 (Table 4 classes), 200 to 1000 nM; with HL-60 (Table 4 classes) it was less than 200 nM; in the experiment with HL-60 (Homo sapiens, Table 3 classes), less than 200 nM. Besides, the values for the EC50 in the experiment on RL (Table 3 classes) and in the experiment on RL (Table 4 classes) were 200 to 2000 nM and 200 to 1000 nM, respectively.
